Tested on: RSV A2 (ATCC: VR-1540)
Experiment: RSV RT-PCR based assay in HEp-2 cells
Assay type: cell-based
Conditions: human respiratory syncytial virus, 96 h; RT-PCR assay, HEp-2 cells, RSV A2 MOI 0.1, 4 days after infection; read-out: EC50

SMILES	EC50
CC[C@]1(CO)O[C@@H](n2ccc(N)nc2=O)[C@H](F)[C@@H]1O [Compound 3a]	< 1 µM
CO[C@]1(CO)O[C@@H](n2ccc(N)nc2=O)[C@H](F)[C@@H]1O [Compound 22a]	10 to 100 µM
Nc1ccn([C@@H]2O[C@@](CO)(CBr)[C@@H](O)[C@H]2F)c(=O)n1 [Compound 71a]	< 1 µM
Nc1ccn([C@@H]2O[C@@](CO)(CF)[C@@H](O)[C@H]2F)c(=O)n1 [Compound 23a]	< 1 µM
C[C@]1(CO)O[C@@H](n2ccc(N)nc2=O)[C@H](F)[C@@H]1O [Compound 9a]	10 to 100 µM
CSC[C@]1(CO)O[C@@H](n2ccc(N)nc2=O)[C@H](F)[C@@H]1O [Compound 69a]	< 1 µM
Nc1ccn([C@@H]2O[C@@](CO)(CCl)[C@@H](O)[C@H]2F)c(=O)n1 [Compound 7a]	< 1 µM

Tested on: Influenza strain A/WSN/33 (H1N1)
Experiment: microbe, parasite or virus in culture
Assay type: cell-based
Conditions: A549, 20 h, read-out: % Inhibition

SMILES	EC50
CC[C@]1(CO)O[C@@H](n2ccc(N)nc2=O)[C@H](F)[C@@H]1O [Compound 3a]	100 to 250 µM
CO[C@]1(CO)O[C@@H](n2ccc(N)nc2=O)[C@H](F)[C@@H]1O [Compound 22a]	100 to 250 µM
Nc1ccn([C@@H]2O[C@@](CO)(CF)[C@@H](O)[C@H]2F)c(=O)n1 [Compound 23a]	100 to 250 µM
C[C@]1(CO)O[C@@H](n2ccc(N)nc2=O)[C@H](F)[C@@H]1O [Compound 9a]	100 to 250 µM
Nc1ccn([C@@H]2OC(CO)(CO)[C@@H](O)[C@H]2F)c(=O)n1 [Compound 6a]	100 to 250 µM
Nc1ccn([C@@H]2O[C@@](CO)(CCl)[C@@H](O)[C@H]2F)c(=O)n1 [Compound 7a]	100 to 250 µM

Tested on: human parainfluenza virus 3 (hPIV3, ATCC: VR-93)
Experiment: Parainfluenza virus-3 (PIV-3) RT-PCR assay in A549 cells
Assay type: cell-based
Conditions: Human respirovirus 3, 168 h, hPIV3 MOI 0.1, 7 days after infection

SMILES	EC50
CC[C@]1(CO)O[C@@H](n2ccc(N)nc2=O)[C@H](F)[C@@H]1O [Compound 3a]	< 20 µM
CO[C@]1(CO)O[C@@H](n2ccc(N)nc2=O)[C@H](F)[C@@H]1O [Compound 22a]	> 100 µM
Nc1ccn([C@@H]2O[C@@](CO)(CBr)[C@@H](O)[C@H]2F)c(=O)n1 [Compound 71a]	> 100 µM
Nc1ccn([C@@H]2O[C@@](CO)(CF)[C@@H](O)[C@H]2F)c(=O)n1 [Compound 23a]	> 100 µM
C[C@]1(CO)O[C@@H](n2ccc(N)nc2=O)[C@H](F)[C@@H]1O [Compound 9a]	> 100 µM
[N-]=[N+]=N[C@]1(CO)O[C@@H](n2ccc(N)nc2=O)[C@@H](O)[C@@H]1O [Compound 113a]	> 100 µM
CSC[C@]1(CO)O[C@@H](n2ccc(N)nc2=O)[C@H](F)[C@@H]1O [Compound 69a]	< 20 µM
Nc1ccn([C@@H]2OC(CO)(CO)[C@@H](O)[C@H]2F)c(=O)n1 [Compound 6a]	> 100 µM
Nc1ccn([C@@H]2O[C@@](CO)(CCl)[C@@H](O)[C@H]2F)c(=O)n1 [Compound 7a]	< 20 µM

Tested on: hPIV3-eGFP
Experiment: microbe, parasite or virus in culture
Assay type: cell-based, human parainfluenza virus 3
Conditions: Human respirovirus 3, A549, 72 h

SMILES	EC50
CC[C@]1(CO)O[C@@H](n2ccc(N)nc2=O)[C@H](F)[C@@H]1O [Compound 3a]	< 20 µM
CO[C@]1(CO)O[C@@H](n2ccc(N)nc2=O)[C@H](F)[C@@H]1O [Compound 22a]	> 100 µM
Nc1ccn([C@@H]2O[C@@](CO)(CBr)[C@@H](O)[C@H]2F)c(=O)n1 [Compound 71a]	> 100 µM
Nc1ccn([C@@H]2O[C@@](CO)(CF)[C@@H](O)[C@H]2F)c(=O)n1 [Compound 23a]	> 100 µM
C[C@]1(CO)O[C@@H](n2ccc(N)nc2=O)[C@H](F)[C@@H]1O [Compound 9a]	> 100 µM
[N-]=[N+]=N[C@]1(CO)O[C@@H](n2ccc(N)nc2=O)[C@@H](O)[C@@H]1O [Compound 113a]	> 100 µM
CSC[C@]1(CO)O[C@@H](n2ccc(N)nc2=O)[C@H](F)[C@@H]1O [Compound 69a]	20 to 100 µM
Nc1ccn([C@@H]2OC(CO)(CO)[C@@H](O)[C@H]2F)c(=O)n1 [Compound 6a]	> 100 µM
Nc1ccn([C@@H]2O[C@@](CO)(CCl)[C@@H](O)[C@H]2F)c(=O)n1 [Compound 7a]	< 20 µM

Tested on: human PIV type 3
Experiment: Parainfluenza virus-3 (PIV-3) plaque assay in MA-104 cells
Assay type: cell-based
Conditions: MA104, 72 hours infection
Method: MA-104 cells were grown in 24-well plates to a confluency of 90% in the presence of minimal essential medium (MEM) supplemented with 10% fetal bovine serum and antibiotics (C-EMEM). The cells were then washed twice with non-complete minimal essential medium (NC-EMEM). Test articles were dissolved in DMSO to a stock concentration of 10 mM. An aliquot of 0.5 mL of the test article at various concentrations was then inoculated in triplicate wells and incubated for 60 minutes at 37° C. with 5% CO2 for the diffusion of test article into MA-104 cells. […] An aliquot of 0.1 mL was then inoculated into all the wells except for the negative and test article toxicity control wells. Upon infection, the plates were incubated for 72 hours at 37° C. at 5% CO2. After incubation, the plates were examined under microscopy to record cytotoxicity. The supernatants collected for viral quantification using a standard plaque assay using MA-104 cells as the indicator cells. To perform the plaques assay, MA-104 cells were grown to confluence in 24-well plates. The cells were washed with serum-free medium prior to inoculation of duplicate wells with serial 10-fold dilutions of supernatant sample. After 1 hour incubation at 37° C., the samples were aspirated and 1.0 mL of methyl cellulose overlay media was added to each well. […]

SMILES	EC50
CC[C@]1(CO)O[C@@H](n2ccc(N)nc2=O)[C@H](F)[C@@H]1O [Compound 3a]	< 20 µM
Nc1ccn([C@@H]2O[C@@](CO)(CCl)[C@@H](O)[C@H]2F)c(=O)n1 [Compound 7a]	< 20 µM

Tested on: human metapneumovirus
Experiment: Human metapneumovirus (hMPV) TCID50 assay in LLC-MK2 cells
Assay type: cell-based
Conditions: 168 h, 7 days infection
Method: LLC-MK2 cells were grown in 24-well plates to a confluency of 90% in the presence of minimal essential medium (MEM) supplemented with 10% fetal bovine serum and antibiotics (C-EMEM). The cells were then washed twice with non-complete minimal essential medium (NC-EMEM). Test articles were dissolved in DMSO to a stock concentration of 10 mM. An aliquot of 0.5 mL of the test article at various concentrations was then inoculated in triplicate wells and incubated for 60 minutes at 37° C. with 5% CO2 for the diffusion of test article into LLC-MK2 cells. […] An aliquot of 0.1 mL was then inoculated into all the wells except for the negative and test article toxicity control wells. Upon infection, the plates were incubated for 7 days at 37° C. at 5% CO2. After incubation, the plates were examined under microscopy to record cytotoxicity. The supernatants collected for viral quantification using a standard TCID50 assay using LLC-MK2 cells as the indicator cells. The data was analyzed with Prism software with EC50 defined as drug concentration that reduced the viral load 50% from the viral control (VC).

SMILES	EC50
CC[C@]1(CO)O[C@@H](n2ccc(N)nc2=O)[C@H](F)[C@@H]1O [Compound 3a]	< 20 µM
Nc1ccn([C@@H]2O[C@@](CO)(CCl)[C@@H](O)[C@H]2F)c(=O)n1 [Compound 7a]	< 20 µM
